pIC50: −log10 of the molar value. Like-named read-outs stand apart in the source and are kept apart here.
What was measured:
[1] = target: IRAK4 (Homo sapiens (Human), UniProt Q9NWZ3); test: IRAK4 MSD degradation in OCI-LY10; assay type: cell-based
Outline: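 Remaining IRAK4 quantified by electrochemiluminescent MSD sandwich assay with two anti-IRAK4 antibodies. Compounds were dosed as 8 concentrations in 1:3 steps from a 1 to 10 μM final top on OCI-LY10 cells, incubated 4 to 24 h at 37° C. under 5% CO2. DC50 fitted with a three-parameter logistic curve.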

[2] = system: OCI-LY10; test: CTG Cell Viability Assay - OCI-LY10; assay type: cell-based, human; conditions: Homo sapiens, OCI-Ly10, 96 h, OCI-LY10, 4 days; read-out: CTG Cell Viability Assay - OCI-LY10: Average external-IC50
Outline: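 Viability read by CellTiter-Glo luminescence after 4 days at 37° C under 5% CO2 with compound (top 10 μM final, 1:3 steps, 9 doses, DMSO 0.2%). Three-parameter logistic fit gave IC50.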

[3] = OCI-LY10, 4 hrs, MSD, read-out: IRAK4 MSD degradation in OCI-LY10 at 4 hrs: Average external-Abs DC50
[4] = OCI-LY10, 24 hrs, MSD, read-out: IRAK4 MSD degradation in OCI-LY10 at 24 hrs: Average external-Abs DC50
[5] = OCI-LY10, 4 hrs, read-out: IRAK4 MSD degradation in OCI-LY10 at 4 hrs: DC50
[6] = OCI-LY10, 24 hrs, read-out: IRAK4 MSD degradation in OCI-LY10 at 24 hrs: DC50

IRAK4, sequence (Q9NWZ3 whole entry): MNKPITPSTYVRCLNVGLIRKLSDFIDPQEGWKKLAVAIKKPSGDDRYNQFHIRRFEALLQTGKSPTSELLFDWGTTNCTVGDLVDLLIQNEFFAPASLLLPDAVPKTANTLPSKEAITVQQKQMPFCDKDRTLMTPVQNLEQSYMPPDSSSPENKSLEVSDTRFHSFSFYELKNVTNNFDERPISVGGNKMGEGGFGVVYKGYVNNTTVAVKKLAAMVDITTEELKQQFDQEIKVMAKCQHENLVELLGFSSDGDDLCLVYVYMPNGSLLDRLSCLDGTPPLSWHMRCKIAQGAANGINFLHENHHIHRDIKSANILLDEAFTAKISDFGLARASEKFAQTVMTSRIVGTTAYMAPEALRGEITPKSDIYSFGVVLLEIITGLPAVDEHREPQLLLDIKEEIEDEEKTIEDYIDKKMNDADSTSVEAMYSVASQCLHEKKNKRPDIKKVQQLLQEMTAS

| Structure (SMILES) | DC50 [1, 3] [nM] | DC50 [1, 4] [nM] | pIC50 [2] | DC50 [1, 5] [nM] | DC50 [1, 6] [nM] |
| --- | --- | --- | --- | --- | --- |
| CC[C@@H]1[C@H](F)C(=O)N[C@@H]1COc1ncc(C#C[C@H]2CC[C@H](CN(C)C3CCN(Cc4cccc5c4n(C)c(=O)n5C4CCC(=O)NC4=O)CC3)CC2)c2cc(C(N)=O)c(OC)cc12 (some centres unmarked) [I-189] | 10 to 100 | < 10 | < 6.00 | – | – |
| C[C@@H](CCNc1cccc2c1C(=O)N(C1CCC(=O)NC1=O)C2=O)OC1CCN(C[C@H]2CC[C@H](n3cc(NC(=O)c4cnn5ccc(N6C[C@H]7C[C@@H]6CO7)nc45)c(C(F)F)n3)CC2)CC1 (some centres unmarked) [I-551] | – | – | > 7.30 | 100 to 1000 | – |
| Cn1c(=O)n(C2CCC(=O)NC2=O)c2cccc(CN3CCC(CN4CCC(n5cc(NC(=O)c6coc(-c7ccnc(NCC8CC8)c7)n6)c(C(F)F)n5)CC4)CC3)c21 (centres unmarked) [I-265] | 10 to 100 | – | > 7.30 | – | – |
| O=C1CCC(N2C(=O)c3cccc(NC4CCN(C5CCN(C[C@H]6CC[C@H](n7cc(NC(=O)c8cnn9ccc(N%10CCOCC%10)nc89)c(C(F)F)n7)CC6)CC5)CC4)c3C2=O)C(=O)N1 (some centres unmarked) [I-232] | < 10 | – | > 7.30 | – | – |
| O=C1CCC(N2C(=O)c3cccc(NCCCOC4CCN(Cc5ccc(-n6cc(NC(=O)c7cnn8ccc(N9C[C@H]%10CC9CO%10)nc78)c(C(F)F)n6)cc5)CC4)c3C2=O)C(=O)N1 (some centres unmarked) [I-438] | 100 to 1000 | 10 to 100 | 7.00 to 7.30 | – | – |
| CC[C@@H]1[C@H](F)C(=O)N[C@@H]1COc1ncc(C#C[C@H]2CC[C@@H](CN(C)CCCOCCCc3ccc4c(c3)n(C)c(=O)n4C3CCC(=O)NC3=O)CC2)c2cc(C(N)=O)c(OC)cc12 (some centres unmarked) [I-230] | 100 to 1000 | 100 to 1000 | < 6.00 | – | – |
| CN(C[C@H]1CC[C@H](n2cc(NC(=O)c3coc(-c4ccnc(NCC5CC5)c4)n3)c(C(F)F)n2)CC1)C1CCN(Cc2ccnc3c2c2ccccc2n3C2CCC(=O)NC2=O)CC1 (some centres unmarked) [I-241] | 10 to 100 | – | 6.00 to 6.30 | – | – |
| CN(C[C@H]1CC[C@H](n2cc(NC(=O)c3cnn4ccc(N5C[C@H]6CC5CO6)nc34)c(C(F)F)n2)CC1)C1CCC2(CC1)CC(Nc1cccc3c1C(=O)N(C1CCC(=O)NC1=O)C3=O)C2 (some centres unmarked) [I-454] | – | – | 7.00 to 7.30 | 100 to 1000 | 10 to 100 |
| CN[C@@H](C)C(=O)N[C@H](C(=O)N1CCC[C@H]1c1nc(C(=O)c2cccc(OCCOCCOCCOCCOCCNC[C@H]3CC[C@H](n4cc(NC(=O)c5coc(-c6ccnc(NCC7CC7)c6)n5)c(C(F)F)n4)CC3)c2)cs1)C1CCCCC1 [I-274] | 100 to 1000 | 100 to 1000 | 6.00 to 6.30 | – | – |
| CN(CCCOCCCc1cccc2c1C(=O)N(C1CCC(=O)NC1=O)C2=O)C[C@H]1CC[C@H](n2cc(NC(=O)c3coc(-c4ccnc(NCC5CC5)c4)n3)c(C(F)F)n2)CC1 (some centres unmarked) [I-167] | 100 to 1000 | – | 6.30 to 7.00 | – | – |
| CC[C@@H]1[C@H](F)C(=O)N[C@@H]1COc1ncc(C#CC2CCN(CC3CCN(Cc4cccc5c4n(C)c(=O)n5C4CCC(=O)NC4=O)CC3)CC2)c2cc(C(N)=O)c(OC)cc12 (some centres unmarked) [I-194] | 10 to 100 | – | < 6.00 | – | – |
| Cn1c(=O)n(C2CCC(=O)NC2=O)c2cccc(CCCOC3CCN(C[C@H]4CC[C@H](n5cc(NC(=O)c6cnn7ccc(N8C[C@H](N)CC(F)(F)C8)nc67)c(C(F)F)n5)CC4)CC3)c21 (stereo partly drawn) [I-303, 5-[(5R)-5-amino-3,3-difluoro-1-piperidyl]-N-[3-(difluoromethyl)-1-[4-[[4-[3-[1-(2,6-dioxo-3-piperidyl)-3-methyl-2-oxo-benzimidazol-4-yl]propoxy]-1-piperidyl]methyl]cyclohexyl]pyrazol-4-yl] pyrazolo [1,5-a] pyrimidine-3-carboxamide] | 10 to 100 | – | < 6.00 | – | – |
| O=C1CCC(N2C(=O)c3cccc(NCCOC4CCN(C[C@H]5CC[C@H](n6cc(NC(=O)c7cnn8ccc(N9C[C@H]%10C[C@@H]9CO%10)nc78)c(C(F)F)n6)CC5)CC4)c3C2=O)C(=O)N1 (some centres unmarked) [I-299] | 10 to 100 | – | 7.00 to 7.30 | – | – |
| Cn1c(=O)n(C2CCC(=O)NC2=O)c2cccc(CCCOC3CCN(C[C@H]4CC[C@H](n5cc(NC(=O)c6cnn7ccc(N[C@@H]8CCCC[C@@H]8O)nc67)c(C(F)(F)F)n5)CC4)CC3)c21 (some centres unmarked) [I-153] | 10 to 100 | – | < 6.00 | – | – |
| CN(CCCc1cccc2c1n(C)c(=O)n2C1CCC(=O)NC1=O)C[C@H]1CC[C@H](n2cc(NC(=O)c3coc(-c4ccnc(NCC5CC5)c4)n3)c(C(F)F)n2)CC1 (some centres unmarked) [I-130] | < 10 | – | < 6.00 | – | – |
| O=C1CCC(N2C(=O)c3cccc(NCCC4CCN(C[C@H]5CC[C@H](n6cc(NC(=O)c7cnn8ccc(N9CCOCC9)nc78)c(C(F)F)n6)CC5)CC4)c3C2=O)C(=O)N1 (some centres unmarked) [I-365] | 10 to 100 | – | > 7.30 | – | – |
| Cn1c(=O)n(C2CCC(=O)NC2=O)c2ccc(CN3CCN(C[C@H]4CC[C@H](n5cc(NC(=O)c6coc(-c7ccnc(NCC8CC8)c7)n6)c(C(F)F)n5)CC4)CC3)cc21 (some centres unmarked) [I-243] | < 10 | – | < 6.00 | – | – |
| Cn1c(=O)n(C2CCC(=O)NC2=O)c2cccc(-c3cccc(CCCOCc4ccc(-n5cc(NC(=O)c6cnn7ccc(N8CCOCC8)nc67)c(C(F)F)n5)cc4)c3)c21 (centres unmarked) [I-409] | > 1000 | – | < 6.00 | – | – |

| Structure (SMILES) | DC50 [1, 3] [nM] | DC50 [1, 4] [nM] | pIC50 [2] | DC50 [1, 5] [nM] | DC50 [1, 6] [nM] |
| --- | --- | --- | --- | --- | --- |
| O=C1CCC(N2C[C@@H](c3ccc(C#CCCOC4CCN(C[C@H]5CC[C@H](n6cc(NC(=O)C7CNN8C=CC(N9CCOCC9)=NC78)c(C(F)F)n6)CC5)CC4)cc3)OC2=O)C(=O)N1 (some centres unmarked) [I-197] | 10 to 100 | – | < 6.00 | – | – |
| CN(CCc1ccc(CNc2cccc3c2C(=O)N(C2CCC(=O)N(C)C2=O)C3=O)cc1)C[C@H]1CC[C@H](n2cc(NC(=O)c3cnn4ccc(N5C[C@H]6CC5CO6)nc34)c(C(F)F)n2)CC1 (some centres unmarked) [I-452] | – | – | < 6.00 | 100 to 1000 | > 1000 |
| CC[C@@H]1CC(=O)N[C@@H]1COc1ncc(C#C[C@H]2CC[C@@H](CN(C)CCCOCCCc3cccc4c3n(C)c(=O)n4C3CCC(=O)NC3=O)CC2)c2cc(C(N)=O)c(OC)cc12 (some centres unmarked) [I-201] | > 1000 | 100 to 1000 | < 6.00 | – | – |
| Cn1c(=O)n(C2CCC(=O)NC2=O)c2ccc(CCCOC3CCN(C[C@H]4CC[C@H](n5cc(NC(=O)c6cnn7ccc(N8CCOCC8)nc67)c(C(F)F)n5)CC4)CC3)cc21 (some centres unmarked) [I-176] | 10 to 100 | – | < 6.00 | – | – |
| CN(CCCOCCCNc1cccc2c1C(=O)N(C1CCC(=O)NC1=O)C2=O)C[C@H]1CC[C@H](n2cc(N(C)C(=O)c3coc(-c4ccnc(NCC5CC5)c4)n3)c(C(F)F)n2)CC1 (some centres unmarked) [I-401] | 100 to 1000 | > 1000 | 6.00 to 6.30 | – | – |
| CN(CCC1CCN(c2cccc3c2C(=O)N(C2CCC(=O)NC2=O)C3=O)CC1)C[C@H]1CC[C@H](n2cc(NC(=O)C3CNN4C=CC(N5CCOCC5)=NC34)c(C(F)F)n2)CC1 (some centres unmarked) [I-223] | 10 to 100 | – | < 6.00 | – | – |
| CN1C(=O)CCC(N2Cc3c(OCc4ccc(CN5CCN(C[C@H]6CC[C@H](n7cc(NC(=O)c8cnn9ccc(N%10CCOCC%10)nc89)c(C(F)F)n7)CC6)CC5)cc4)cccc3C2=O)C1=O (some centres unmarked) [I-322] | 100 to 1000 | > 1000 | < 6.00 | – | – |
| CN1C(=O)CCC(N2C(=O)c3cccc(NCC4CC5(CCN(C[C@H]6CC[C@H](n7cc(NC(=O)c8cnn9ccc(N%10C[C@H]%11C[C@@H]%10CO%11)nc89)c(C(F)F)n7)CC6)CC5)C4)c3C2=O)C1=O (some centres unmarked) [I-323] | 100 to 1000 | > 1000 | < 6.00 | – | – |
| CN(CC1(CNc2cccc3c2C(=O)N(C2CCC(=O)NC2=O)C3=O)CCC1)C[C@H]1CC[C@H](n2cc(NC(=O)c3cnn4ccc(N5C[C@H]6C[C@@H]5CO6)nc34)c(C(F)F)n2)CC1 (some centres unmarked) [I-491] | – | – | < 6.00 | 100 to 1000 | > 1000 |
| CN(CCCN1CCO[C@H](CNc2cccc3c2C(=O)N(C2CCC(=O)NC2=O)C3=O)C1)C[C@H]1CC[C@H](n2cc(NC(=O)c3cnn4ccc(N5C[C@H]6C[C@@H]5CO6)nc34)c(C(F)F)n2)CC1 (some centres unmarked) [I-475] | – | – | > 7.30 | 10 to 100 | < 10 |
| CN(C[C@H]1CC[C@H](n2cc(NC(=O)c3cnn4ccc(N5CCOCC5)nc34)c(C(F)F)n2)CC1)C1CCN(CCc2cccc3c2n(C)c(=O)n3C2CCC(=O)NC2=O)CC1 (some centres unmarked) [I-404] | < 10 | – | > 7.30 | – | – |
| CN(CCCOCCCNc1cccc2c1C(=O)N(C1CCC(=O)NC1=O)C2=O)Cc1ccc(-n2cc(NC(=O)c3coc(-c4ccnc(NCC5CC5)c4)n3)c(C(F)F)n2)cc1 (centres unmarked) [I-392] | 100 to 1000 | 10 to 100 | 6.30 to 7.00 | – | – |
| CN(CCOCCOCCOC12CC3CC(CC(C3)C1)C2)C[C@H]1CC[C@H](n2cc(NC(=O)c3coc(-c4ccnc(NCC5CC5)c4)n3)c(C(F)F)n2)CC1 [I-174] | > 1000 | > 1000 | < 6.00 | – | – |
| CN(C(=O)c1coc(-c2ccnc(NCC3CC3)c2)n1)c1cn([C@H]2CC[C@H](CN(C)C3CCN(Cc4cccc5c4n(C)c(=O)n5C4CCC(=O)NC4=O)CC3)CC2)nc1C(F)F (some centres unmarked) [I-395] | 100 to 1000 | – | < 6.00 | – | – |
| CN(CCN1CCO[C@@H](CNc2cccc3c2C(=O)N(C2CCC(=O)NC2=O)C3=O)C1)C[C@H]1CC[C@H](n2cc(NC(=O)c3cnn4ccc(N5C[C@H]6C[C@@H]5CO6)nc34)c(C(F)F)n2)CC1 (some centres unmarked) [I-500] | – | – | 7.00 to 7.30 | 100 to 1000 | 10 to 100 |
| Cn1c(=O)n(C2CCC(=O)NC2=O)c2cccc(C3CCN(C[C@H]4CC[C@H](n5cc(NC(=O)c6cnn7ccc(N8CCOCC8)nc67)c(C(F)F)n5)CC4)CC3)c21 (some centres unmarked) [I-199] | 100 to 1000 | – | < 6.00 | – | – |
| CN(CCC1CCN(C(=O)c2ccc(CNCc3ccc(-c4ccc5c(cnn5CC5CC5)c4)cc3)cc2)CC1)C[C@H]1CC[C@H](n2cc(NC(=O)c3coc(-c4ccnc(NCC5CC5)c4)n3)c(C(F)F)n2)CC1 [I-134] | > 1000 | > 1000 | < 6.00 | – | – |

— US11352350B2, “IRAK degraders and uses thereof” (Kymera Therapeutics, Inc., priority 2018, dated 2022)
